Measurements from patent publication US20220265629A1, “TREATMENT OF SYSTOLIC DYSFUNCTION AND HEART FAILURE WITH REDUCED EJECTION FRACTION WITH THE COMPOUND (R)-4-(1-((3-(DIFLUOROMETHYL)-1-METHYL-1H-PYRAZOL-4-YL)SULFONYL)-1-FLUOROETHYL)-N-(ISOXAZOL-3-YL)PIPERIDINE-1-CARBOXAMIDE” (MyoKardia, Inc., priority 2019, published 2022).
Converted amounts (≈) assume the structure as drawn. Like-named read-outs stand apart in the source and are kept apart here.

Experiments:
[1] = Physicochemical and biopharmaceutical properties of the drug substance (PBPK model input); settings: for blood plasma ratio: blood and plasma
Excerpt: A PBPK mechanistic absorption model was developed by integrating (1) physicochemical and biopharmaceutical properties obtained from in vitro experimental measurements or in silico estimates based on chemical structure using ADMET Predictor (version 7.2) in GastroPlus (Version 9.6); (2) formulation properties of the drug product such as drug substance particle size distribution, formulation type, and rate of release or dissolution; (3) compartmental model kinetic parameters such as systemic clearance, volume of distribution, and inter-compartmental rate constants; and (4) gut physiology parameters such as gastro-intestinal (GI) transit time, pH, absorptive surface area, compartment dimensions and fluid content. The preexisting physiological parameters in GastroPlus (Version 9.6) for American healthy volunteers and beagle dogs under fasted conditions were used without modification.

healthy volunteers = assay: Food effect cross-over study, healthy volunteers: safety; format: in vivo, human
Experimental: ECG was performed as described in Example 1. The following intervals were measured: RR, PR, QRS, and QT. Heart rate (HR) was calculated as 60/(RR×1000) (with RR expressed in msec) and rounded to the nearest integer. Each individual ECG QT value was corrected for HR. The measured QT data was corrected for HR using the Fridericia method (QTcF) as per the following formulae/method (with QT, RR and QTc expressed in ms): […]
The Investigator or designee monitored the continuous ECG telemetry data and correlated the finding(s) with any other clinical findings, study participant's medical history, study participant's clinical status and laboratory data to determine the clinical importance of the finding.
Serum troponin-I concentrations were determined as described in Example 1. Abnormal and/or rising troponin values (as per Investigator's judgment and taking into account potential Baseline troponin elevation) led to the subject being clinically evaluated for possible myocardial ischemia. […] The entire clinical context would be evaluated (e.g., signs, symptoms, new ECG changes, new troponin, and CK-MB abnormalities) and correlated with any other relevant clinical findings, the subject's medical history, and laboratory data to determine the clinical significance of the findings.

[2] = crystalline free-base drug substance

Cn1cc(S(=O)(=O)[C@@](C)(F)C2CCN(C(=O)Nc3ccon3)CC2)c(C(F)F)n1 [Compound I, (R)-4-(1-((3-(difluoromethyl)-1-methyl-1H-pyrazol-4-yl)sulfonyl)-1-fluoroethyl)-N-(isoxazol-3-yl)piperidine-1-carboxamide]
Biopharmaceutics Classification System (BCS) class [1]: Class II
solubility ([1]; aqueous buffer, 37° C., across pH 1.2-9.6): ~43 µg/mL (≈ 98.8 µM)
blood plasma ratio ([1]; Dog, in vitro measured, read-out: B:P (Dog), ratio of concentration of drug in blood to plasma): 0.8
blood plasma ratio ([1]; Human, in vitro measured, read-out: B:P (Human), ratio of concentration of drug in blood to plasma): 0.85
hygroscopicity [1, 2]: nonhygroscopic
solubility in aqueous media [1, 2]: practically insoluble
Papp ([1]; human, Caco-2, in vitro measured, read-out: Permeability, Caco-2): 17.9 ×10⁻⁶ cm/s
logD ([1]; pH 7.4, Measured): 3.07
troponin-I (healthy volunteers; 200 mg, fasted or fed state): No increase
abnormal ECG results (healthy volunteers; 200 mg, fasted state): 3 (30.0%)
headache (healthy volunteers; 200 mg, fasted state): 4 subjects
abnormal ECG results (healthy volunteers; 200 mg, fed state): 2 (20.0%)
headache (healthy volunteers; 200 mg, fed state): 1 subject
tolerability (healthy volunteers; single dose of 200 mg): well-tolerated
